Patent US20230391760A1, “HETEROCYCLIC GLP-1 AGONISTS” (Gasherbrum Bio, Inc., priority 2020, published 2023)

target: GLP-1 Receptor (Homo sapiens, UniProt P43220); assay: GLP-1R agonist cAMP stimulation assay (HEK293/GLP1R/CRE-LUC cells, cAMP dynamic 2 Kit); type: cell-based; settings: HEK293/CRE-Luc cell line stably expressing the GLP-1 Receptor, 30 min at 37° C.
Experimental: Activation of GLP-1 receptor is known to stimulate cyclic AMP (cAMP) production in cells which indicates primary coupling to the Gαs subunit of the G protein heterotrimeric complex. […] To optimize functional activity directed toward Gαs coupling, a HEK293/CRE-Luc cell line developed by HDB stably expressing the GLP-1 Receptor was used. 200×concentration of compound working solutions were prepared (Agilent Technologies Bravo) with 1/2 log serial dilution in 384-well Echo LDV plate (Labcyte, Cat #LP-0200). 50 nL/well 200× concentration of compound working solutions were moved to 384-well white low volume plate (Greiner,Cat #784075) using Labcyte ECHO550. 1×10^5 cells/mL HEK293/GLP1R/CRE-LUC(HD Biosciences) cell suspensions prepared with assay buffer[DPBS containing 0.5 mM IBMX(Sigma, Cat #15879) and 0.1% BSA (GENVIEW, Cat #FA016-100 g)], 10 uL cell suspensions were added to each well of previous generated assay plate which already contains 50 nl compound at 200×concentration using ThermoFisher Multidrop Combi (1000 cells/well). Seal the plate and incubate at 37° C. with 5% CO2 for 30 min. After incubation the cAMP assay signal was generated using cAMP dynamic 2 Kit (Cisbio). 5 μL cAMP-d2 working solution was added to each well, followed with 5 μL Anti-cAMP antibody-cryptate working solution added to each well using ThermoFisher Multidrop Combi. Incubate at room temperature for 1 hour protected from light.

Sequence of GLP-1 Receptor (P43220 24-463, species assumed): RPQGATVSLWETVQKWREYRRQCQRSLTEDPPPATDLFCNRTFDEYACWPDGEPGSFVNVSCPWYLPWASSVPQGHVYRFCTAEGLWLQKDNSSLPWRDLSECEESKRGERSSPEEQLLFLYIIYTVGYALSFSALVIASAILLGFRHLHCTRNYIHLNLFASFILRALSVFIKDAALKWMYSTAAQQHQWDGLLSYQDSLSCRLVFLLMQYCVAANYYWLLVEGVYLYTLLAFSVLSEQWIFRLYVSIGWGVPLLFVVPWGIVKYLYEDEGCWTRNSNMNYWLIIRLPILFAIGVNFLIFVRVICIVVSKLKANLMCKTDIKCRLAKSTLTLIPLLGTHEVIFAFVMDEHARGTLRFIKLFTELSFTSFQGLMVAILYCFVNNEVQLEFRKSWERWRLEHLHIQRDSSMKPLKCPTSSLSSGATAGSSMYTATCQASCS

Going from Fc1cc(Cl)ccc1COc1cccc(C2CCN(Cc3nc4cc(-c5cn[nH]n5)ccc4n3C[C@@H]3CCO3)CC2)n1 [Compound 149a, 2-[(4-{6-[(4-chloro-2-fluorophenyl)methoxy]pyridin-2-yl}piperidin-1-yl)methyl]-1-{[(2S)-oxetan-2-yl]methyl}-5-(2H-1,2,3-triazol-4-yl)-1H-1,3-benzodiazole] to O=c1[nH]c(-c2cc3nc(CN4CCC(c5ccc(F)c(OCc6ccc(Cl)cc6F)n5)CC4)n(C[C@@H]4CCO4)c3cn2)no1 [Compound 438a, 3-{2-[(4-{6-[(4-chloro-2-fluorophenyl)methoxy]-5-fluoropyridin-2-yl}piperidin-1-yl)methyl]-3-{[(2S)-oxetan-2-yl]methyl}-3H-imidazo[4,5-c]pyridin-6-yl}-4,5-dihydro-1,2,4-oxadiazol-5-one], the EC50 falls from 4.8 nM to 0.026 nM (180-fold). The second is the more potent here.

First: 4-[2-(4-chloro-2-fluorophenyl)-2-methyl-2H-1,3-benzodioxol-4-yl]-1-[(3-{[(2S)-oxolan-2-yl]methyl}-6-[5-(trifluoromethyl)-4H-1,2,4-triazol-3-yl]-3H-imidazo[4,5-b]pyridin-2-yl)methyl]piperidine [Compound 247a]
Second: C[C@]1(c2ccc(Cl)cc2F)Oc2cccc(C3CCN(Cc4nc5cc(-c6nnc(C7CC7)[nH]6)ncc5n4C[C@@H]4CCO4)CC3)c2O1 [Compound 281a, 4-[(2S)-2-(4-chloro-2-fluorophenyl)-2-methyl-2H-1,3-benzodioxol-4-yl]-1-{[6-(5-cyclopropyl-4H-1,2,4-triazol-3-yl)-3-{[(2S)-oxetan-2-yl]methyl}-3H-imidazo[4,5-c]pyridin-2-yl]methyl}piperidine]
The EC50 of the first is 150-fold higher: 3.4 nM for the first, 0.023 nM for the second.

Going from COC(=O)Nc1ccc2c(c1)nc(CN1CCC(c3cccc(OCc4ccc(Cl)cc4F)n3)CC1)n2C[C@@H]1CCO1 [Compound 146a, methyl N-{2-[(4-{6-[(4-chloro-2-fluorophenyl)methoxy]pyridin-2-yl}piperidin-1-yl)methyl]-1-{[(2S)-oxetan-2-yl]methyl}-1H-1,3-benzodiazol-5-yl}carbamate] to Fc1cc(Cl)ccc1COc1nccc(C2CCN(Cc3nc4cc(-c5nnc(C(F)(F)F)[nH]5)ncc4n3C[C@@H]3CCO3)CC2)n1 [Compound 505a, 2-[(4-chloro-2-fluorophenyl)methoxy]-4-{1-[(3-{[(2S)-oxetan-2-yl]methyl}-6-[5-(trifluoromethyl)-4H-1,2,4-triazol-3-yl]-3H-imidazo[4,5-c]pyridin-2-yl)methyl]piperidin-4-yl}pyrimidine], the EC50 falls from 0.49 nM to 0.045 nM (11-fold).

First: CC1(c2ccc(Cl)cc2F)Oc2cccc(C3CCN(Cc4nc5cc(-c6cn[nH]c6)ccc5n4C[C@@H]4CCO4)CC3)c2O1 (stereo partly drawn) [Compound 234a, 2-((4-(2-(4-chloro-2-fluorophenyl)-2-methylbenzo[d][1,3]dioxol-4-yl)piperidin-1-yl)methyl)-1-(((S)-oxetan-2-yl)methyl)-5-(1H-pyrazol-4-yl)-1H-benzo[d]imidazole]
Second: CC1(c2ccc(C#N)cc2F)Oc2cccc(C3CCN(Cc4nc5cc(-c6nnc(C(F)(F)F)[nH]6)ccc5n4C[C@@H]4CCO4)CC3)c2O1 (stereo partly drawn) [Compound 261a, 3-fluoro-4-(2-methyl-4-{1-[(1-{[(2S)-oxetan-2-yl]methyl}-5-[5-(trifluoromethyl)-4H-1,2,4-triazol-3-yl]-1H-1,3-benzodiazol-2-yl)methyl]piperidin-4-yl}-2H-1,3-benzodioxol-2-yl)benzonitrile]
The EC50 of the first is 210-fold higher: 3.7 nM for the first, 0.018 nM for the second.

First: Fc1cc(Cl)ccc1COc1nc(C2CCN(Cc3nc4cc(-c5nnc(C(F)(F)F)[nH]5)ncc4n3C[C@@H]3CCO3)CC2)ncc1F [Compound 491a, 4-[(4-chloro-2-fluorophenyl)methoxy]-5-fluoro-2-{1-[(3-{[(2S)-oxetan-2-yl]methyl}-6-[5-(trifluoromethyl)-4H-1,2,4-triazol-3-yl]-3H-imidazo[4,5-c]pyridin-2-yl)methyl]piperidin-4-yl}pyrimidine]
Second: C[C@H]1CN(c2ccc(F)c(OCc3ccc(C#N)cc3F)c2)CCN1Cc1nc2cc(-c3nnc(C(F)(F)F)[nH]3)nnc2n1C[C@@H]1CCO1 [Compound 522a, 3-fluoro-4-({2-fluoro-5-[(3S)-3-methyl-4-[(7-{[(2S)-oxetan-2-yl]methyl}-3-[5-(trifluoromethyl)-4H-1,2,4-triazol-3-yl]-7H-imidazo[4,5-c]pyridazin-6-yl)methyl]piperazin-1-yl]phenoxy}methyl)benzonitrile]
The EC50 of the first is 8.1-fold lower: 0.057 nM for the first, 0.46 nM for the second.

Compared with CC1(c2ccc(Cl)cc2F)Oc2cccc(C3=CCN(Cc4nc5cc(-c6nnc(C(F)(F)F)[nH]6)ccc5n4C[C@@H]4CCO4)CC3)c2O1 (stereo partly drawn) [Compound 256a, 2-({4-[2-(4-chloro-2-fluorophenyl)-2-methyl-2H-1,3-benzodioxol-4-yl]-1,2,3,6-tetrahydropyridin-1-yl}methyl)-1-{[(2S)-oxetan-2-yl]methyl}-5-[5-(trifluoromethyl)-4H-1,2,4-triazol-3-yl]-1H-1,3-benzodiazole], CC1(c2ccc(F)cc2Cl)Oc2cccc(C3CCN(Cc4nc5cc(-c6nnc(C(F)(F)F)[nH]6)ccc5n4C[C@@H]4CCO4)CC3)c2O1 (stereo partly drawn) [Compound 404a, 2-({4-[2-(2-chloro-4-fluorophenyl)-2-methyl-2H-1,3-benzodioxol-4-yl]piperidin-1-yl}methyl)-1-{[(2S)-oxetan-2-yl]methyl}-5-[5-(trifluoromethyl)-4H-1,2,4-triazol-3-yl]-1H-1,3-benzodiazole] is 5.1-fold lower in EC50: 0.23 nM for the first, 0.045 nM for the second.

Compared with O=C1NCCN1c1ccc2c(c1)nc(CN1CCC(c3cccc(OCc4ccc(Cl)cc4F)n3)CC1)n2C[C@@H]1CCO1 [Compound 123a, 1-{2-[(4-{6-[(4-chloro-2-fluorophenyl)methoxy]pyridin-2-yl}piperidin-1-yl)methyl]-1-{[(2S)-oxetan-2-yl]methyl}-1H-1,3-benzodiazol-5-yl}imidazolidin-2-one], N#Cc1ccc(COc2nc(C3CCN(Cc4nc5cc(-c6nnc(C(F)(F)F)[nH]6)ncc5n4C[C@@H]4CCO4)CC3)ccc2F)c(F)c1 [Compound 485a, 3-fluoro-4-{[(3-fluoro-6-{1-[(3-{[(2S)-oxetan-2-yl]methyl}-6-[5-(trifluoromethyl)-4H-1,2,4-triazol-3-yl]-3H-imidazo[4,5-c]pyridin-2-yl)methyl]piperidin-4-yl}pyridin-2-yl)oxy]methyl}benzonitrile] is 420-fold lower in EC50: 4 nM for the first, 0.0096 nM for the second. The second is the more potent here.

Compared with CC1(c2ccc(Cl)cc2F)Oc2cccc(C3CCN(Cc4nc5cc(-c6nnc(C(F)(F)F)[nH]6)cnc5n4C[C@H]4CCCO4)CC3)c2O1 (stereo partly drawn) [Compound 245a, 4-[2-(4-chloro-2-fluorophenyl)-2-methyl-2H-1,3-benzodioxol-4-yl]-1-[(3-{[(2R)-oxolan-2-yl]methyl}-6-[5-(trifluoromethyl)-4H-1,2,4-triazol-3-yl]-3H-imidazo[4,5-b]pyridin-2-yl)methyl]piperidine], Nc1cccc(-c2ccc3c(c2)nc(CN2CCC(c4cccc(OCc5ccc(Cl)cc5F)n4)CC2)n3C[C@@H]2CCO2)n1 [Compound 212a, 6-{2-[(4-{6-[(4-chloro-2-fluorophenyl)methoxy]pyridin-2-yl}piperidin-1-yl)methyl]-1-{[(2S)-oxetan-2-yl]methyl}-1H-1,3-benzodiazol-5-yl}pyridin-2-amine] is 2.9-fold higher in EC50: 2.6 nM for the first, 7.5 nM for the second.

Compared with C[C@]1(c2ccc(Cl)cc2F)Oc2cccc(C3CCN(Cc4nc5cc(-c6noc(=O)[nH]6)cnc5n4C[C@@H]4CCO4)CC3)c2O1 [Compound 262, 3-[2-({4-[(2S)-2-(4-chloro-2-fluorophenyl)-2-methyl-2H-1,3-benzodioxol-4-yl]piperidin-1-yl}methyl)-3-{[(2S)-oxetan-2-yl]methyl}-3H-imidazo[4,5-b]pyridin-6-yl]-4,5-dihydro-1,2,4-oxadiazol-5-one], CC1(c2ccc(C#N)cn2)Oc2cccc(C3CCN(Cc4nc5cc(-c6nnc(C(F)(F)F)[nH]6)ccc5n4C[C@@H]4CCO4)CC3)c2O1 (stereo partly drawn) [Compound 354a, 6-(2-methyl-4-{1-[(1-{[(2S)-oxetan-2-yl]methyl}-5-[5-(trifluoromethyl)-4H-1,2,4-triazol-3-yl]-1H-1,3-benzodiazol-2-yl)methyl]piperidin-4-yl}-2H-1,3-benzodioxol-2-yl)pyridine-3-carbonitrile] is 1.5-fold higher in EC50: 0.071 nM for the first, 0.11 nM for the second.

Compared with CC1(c2ccc(Cl)cc2F)Oc2cccc(C3CCN(Cc4nc5cc(-c6noc(=O)[nH]6)cnc5n4C[C@H]4CCOC4)CC3)c2O1 (stereo partly drawn) [Compound 400a, 3-[2-({4-[2-(4-chloro-2-fluorophenyl)-2-methyl-2H-1,3-benzodioxol-4-yl]piperidin-1-yl}methyl)-3-{[(3R)-oxolan-3-yl]methyl}-3H-imidazo[4,5-b]pyridin-6-yl]-4,5-dihydro-1,2,4-oxadiazol-5-one], CCC(=O)Nc1ccc2c(c1)nc(CN1CCC(c3cccc(OCc4ccc(Cl)cc4F)n3)CC1)n2C[C@@H]1CCO1 [Compound 102a, (S)—N-(2-((4-(6-((4-chloro-2-fluorobenzyl)oxy)pyridin-2-yl)piperidin-1-yl)methyl)-1-(oxetan-2-ylmethyl)-1H-benzo[d]imidazol-5-yl)propionamide] is 6.9-fold lower in EC50: 3.7 nM for the first, 0.539 nM for the second. The second is the more potent here.
